According to patent publication US10077284B2, “UBA5 inhibitors” (THE GOVERNING COUNCIL OF THE UNIVERSITY OF TORONTO, priority 2014, dated 2018):
Read-outs that look alike come from different tables or passages of the source. Values belong to the compound of their own block, whether it stands above or below them.

Molecular target: T1, GST-UBA5 (Homo sapiens, UniProt Q9GZZ9)
T1 construct: made in house
Assay: UBA5 transthiolation assay (UFC1-UFM1 conjugate formation)
Assay type: biochemical
Details: for inhibition at 0.1 µM: [Ligand] 0.1 μM; for inhibition at 0.1 µM / inhibition at 1 µM / inhibition at 5 µM / inhibition at 10 µM / inhibition at 50 µM / inhibition at 100 µM: n = 1; for inhibition at 1 µM: [Ligand] 1 μM; for inhibition at 5 µM: [Ligand] 5 μM; for inhibition at 10 µM: [Ligand] 10 μM; for inhibition at 50 µM: [Ligand] 50 μM; for inhibition at 100 µM: [Ligand] 100 μM; for IC50: read-out: IC50

[1] = Table 1, transthiolation enzymatic assay
[2] = Table 3, n = 3, tested 0.1-100 μM

T1 sequence (Q9GZZ9 whole entry): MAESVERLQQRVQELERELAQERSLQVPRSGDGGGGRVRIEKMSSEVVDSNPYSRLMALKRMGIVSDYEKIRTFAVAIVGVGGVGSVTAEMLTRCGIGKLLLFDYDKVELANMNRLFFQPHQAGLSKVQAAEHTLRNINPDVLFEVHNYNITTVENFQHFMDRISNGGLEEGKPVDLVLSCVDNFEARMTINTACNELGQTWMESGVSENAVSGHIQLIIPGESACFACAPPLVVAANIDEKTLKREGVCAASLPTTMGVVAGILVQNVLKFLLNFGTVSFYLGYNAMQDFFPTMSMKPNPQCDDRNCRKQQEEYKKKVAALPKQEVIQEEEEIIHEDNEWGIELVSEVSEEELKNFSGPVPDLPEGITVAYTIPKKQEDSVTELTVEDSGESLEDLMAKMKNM
Method: Initial rates were recorded over 30 second time intervals from 0 to 2.5 min (normal kinetics) or 0 to 5 min (inhibition kinetics). Reactions were initiated by the addition of ATP and stopped using 4× Laemmli sample buffer (BioRad). The generated protein conjugates were separated on a 10% non-degenerating SDS-polyacrylamide gel (4-15% gels were used for the UAE transthiolaton assay), followed by Western blot analysis, with the exception of GST-UBA5 where protein bands were detected using Coomassie™ Brilliant Blue R-250 staining or Stain-Free gel imaging for the enzymatic assays (Bio-Rad). Transfers for the UAE and NAE immunoblots were performed using nitrocellulose membranes and blocking and blotting was performed as described above with cellular protein extracts. The His6-tagged Ub-UBCH6 complex was detected using an anti-His mouse monoclonal primary antibody (1:500, abcam). A rabbit anti-NEDD8 polyclonal primary antibody (1:500, BostonBiochem) was used for the detection of the E2-NEDD8 complexes. […] Inhibitory data was fit to a dose-response curve (Y=Bottom+(Top−Bottom)/(1+10^(X-Log IC50))) using GraphPad Prism 6.

inhibition at 0.1 µM: 0% | inhibition at 1 µM: 25% | inhibition at 5 µM: 41% | inhibition at 10 µM: 31% | inhibition at 50 µM: 4% | inhibition at 100 µM: 26%
Compound: Nc1ncnc2c1ncn2[C@@H]1O[C@H](C(=O)NCC(=O)N2CCNCCNCCNCC2)[C@@H](O)[C@H]1O [Compound 1.1, (2S,3S,4R,5R)-5-(6-amino-9H-purin-9-yl)-3,4-dihydroxy-N-(2-oxo-2-(1,4,7,10-tetraazacyclododecan-1-yl)ethyl)tetrahydrofuran-2-carboxamide]

IC50 (Table 5, n = 3): 20 µM
Compound: Nc1ncnc2c1ncn2[C@@H]1O[C@H](C(=O)NCCN2CCCNCCNCCCNCC2)[C@@H](O)[C@H]1O.[Zn+2] [Compound 1.1.A.Cy.Zn, (2S,3S,4R,5R)—N-(2-(1,4,8,11-tetraazacyclotetradecan-1-yl)ethyl)-5-(6-amino-9H-purin-9-yl)-3,4-dihydroxytetrahydrofuran-2-carboxamide, zinc(II) trifluoromethanesulfonate]

IC50 (Table 5, n = 3): 7.61 µM
Compound: Nc1ncnc2c1ncn2[C@@H]1O[C@H](C(=O)NCCN2CCNCCNCCNCC2)[C@@H](O)[C@H]1O.[Zn+2] [Compound 1.1.A.Zn, (2S,3S,4R,5R)—N-(2-(1,4,7,10-tetraazacyclododecan-1-yl)ethyl)-5-(6-amino-9H-purin-9-yl)-3,4-dihydroxytetrahydrofuran-2-carboxamide, zinc(II) trifluoromethanesulfonate]

IC50 (Table 4, n = 3): 4.24 µM
Compound: Nc1ncnc2c1ncn2[C@@H]1O[C@H](C(=O)NCC(=O)N2CCCNCCNCCCNCC2)[C@@H](O)[C@H]1O.[Zn+2] [Compound 1.1.Cy.Zn, (2S,3S,4R,5R)-5-(6-amino-9H-purin-9-yl)-3,4-dihydroxy-N-(2-oxo-2-(1,4,8,11-tetraazacyclotetradecan-1-yl)ethyl)tetrahydrofuran-2-carboxamide, zinc(II) trifluromethanesulfonate]

IC50 [1]: 8.9 µM
Compound: Nc1ncnc2c1ncn2[C@@H]1O[C@H](C(=O)NCCC(=O)N2CCNCCNCCNCC2)[C@@H](O)[C@H]1O.[Zn+2] [Compound 1.2.Zn, (2S,3S,4R,5R)-5-(6-amino-9H-purin-9-yl)-3,4-dihydroxy-N-(3-oxo-3-(1,4,7,10-tetraazacyclododecan-1-yl)propyl)tetrahydrofuran-2-carboxamide zinc (II) trifluoromethanesulfonate]

inhibition at 0.1 µM: 24% | inhibition at 1 µM: 10% | inhibition at 5 µM: 17% | inhibition at 10 µM: 28% | inhibition at 50 µM: 11% | inhibition at 100 µM: 0%
Compound: Nc1ncnc2c1ncn2[C@@H]1O[C@H](C(=O)NCCCC(=O)N2CCNCCNCCNCC2)[C@@H](O)[C@H]1O [Compound 1.3, (2S,3S,4R,5R)-5-(6-amino-9H-purin-9-yl)-3,4-dihydroxy-N-(4-oxo-4-(1,4,7,10-tetraazacyclododecan-1-yl)butyl)tetrahydrofuran-2-carboxamide]

IC50 [1]: 23.3 µM
Compound: Nc1ncnc2c1ncn2[C@@H]1O[C@H](C(=O)NCCCC(=O)N2CCNCCNCCNCC2)[C@@H](O)[C@H]1O.[Zn+2] [Compound 1.3.Zn, (2S,3S,4R,5R)-5-(6-amino-9H-purin-9-yl)-3,4-dihydroxy-N-(4-oxo-4-(1,4,7,10-tetraazacyclododecan-1-yl)butyl)tetrahydrofuran-2-carboxamide zinc (II) trifluoromethanesulfonate]

IC50 [1]: 5.2 µM
Compound: Nc1ncnc2c1ncn2[C@@H]1O[C@H](C(=O)NCCCCC(=O)N2CCNCCNCCNCC2)[C@@H](O)[C@H]1O.[Zn+2] [Compound 1.4.Zn, (2S,3S,4R,5R)-5-(6-amino-9H-purin-9-yl)-3,4-dihydroxy-N-(5-oxo-5-(1,4,7,10-tetraazacyclododecan-1-yl)pentyl)tetrahydrofuran-2-carboxamide zinc (II) trifluoromethanesulfonate]

IC50 (Table 5, n = 3): 38.2 µM
Compound: Nc1ncnc2c1ncn2[C@@H]1O[C@H](C(=O)NCCCCCCN2CCNCCNCCNCC2)[C@@H](O)[C@H]1O.[Zn+2] [Compound 1.5.A.Zn, (2S,3S,4R,5R)—N-(6-(1,4,7,10-tetraazacyclododecan-1-yl)hexyl)-5-(6-amino-9H-purin-9-yl)-3,4-dihydroxytetrahydrofuran-2-carboxamide, zinc(II) trifluromethanesulfonate]

IC50 (Table 6, n = 3): 13.6 µM
Compound: O=C(NCCCCCC(=O)N1CCNCCNCCNCC1)[C@H]1O[C@@H](n2cnc3c(N[C@H]4CCc5ccccc54)ncnc32)[C@H](O)[C@@H]1O.[Zn+2] [Compound 1.5.An6.Zn, (2S,3S,4R,5R)-5-(6-(((S)-2,3-dihydro-1H-inden-1-yl)amino)-9H-purin-9-yl)-3,4-dihydroxy-N-(6-oxo-6-(1,4,7,10-tetraazacyclododecan-1-yl)hexyl)tetrahydrofuran-2-carboxamide, zinc(II) trifluoromethanesulfate]

Compound: Nc1ncnc2c1ncn2[C@@H]1O[C@H](C(=O)NCCCCCC(=O)N2CCNCCNCCNCC2)[C@@H](O)[C@H]1O.O=S(=O)([O-])C(F)(F)F.O=S(=O)([O-])C(F)(F)F.[Cu+2] [Compound 1.5.Cu, (2S,3S,4R,5R)—N-(6-(1,4,7,10-tetraazacyclododecan-1-yl)-6-oxohexyl)-5-(6-amino-9H-purin-9-yl)-3,4-dihydroxytetrahydrofuran-2-carboxamide copper (II) trifluoromethanesulfonate]
IC50 [2]: > 100 µM

Compound: C1CNCCNCCNCCN1.[Zn+2] [zinc(II) cyclen complex, reference compound]
effect on the transthiolation reaction (at 100 μM): able to impede the transthiolation reaction

Compound: (2S,3S,4R,5R)-5-(6-(((S)-2,3-dihydro-1H-inden-1-yl)amino)-9H-purin-9-yl)-3,4-dihydroxy-N-(6-oxo-6-(1,4,7,10-tetraazacyclododecan-1-yl)hexyl)tetrahydrofuran-2-carboxamide, copper(II) trifluoromethanesulfonate [Compound 1.5.An6.Cu]
IC50 (Table 6, n = 3): 12.5 µM

Compound: (2S,3S,4R,5R)-5-(6-amino-9H-purin-9-yl)-3,4-dihydroxy-N-(2-oxo-2-(1,4,7,10-tetraazacyclododecan-1-yl)ethyl)tetrahydrofuran-2-carboxamide zinc (II) trifluromethanesulfonate [Compound 1.1.Zn]
IC50 [1]: 10.5 µM | IC50 (Table 5, n = 3): 10.5 µM

Compound: (2S,3S,4R,5R)-5-(6-amino-9H-purin-9-yl)-3,4-dihydroxy-N-(2-oxo-2-(1,4,7,10-tetraazacyclododecan-1-yl)ethyl)tetrahydrofuran-2-carboxamide, copper(II) trifluromethanesulfonate [Compound 1.1.Cu]
IC50 [2]: > 100 µM

Compound: (2S,3S,4R,5R)-5-(6-amino-9H-purin-9-yl)-3,4-dihydroxy-N-(2-oxo-2-(1,4,8,11-tetraazacyclotetradecan-1-yl)ethyl)tetrahydrofuran-2-carboxamide, copper(II) trifluoromethanesulfonate [Compound 1.1.Cy.Cu]
IC50 (Table 4, n = 3): 45.4 µM

Compound: (2S,3S,4R,5R)-5-(6-amino-9H-purin-9-yl)-3,4-dihydroxy-N-(3-oxo-3-(1,4,7,10-tetraazacyclododecan-1-yl)propyl)tetrahydrofuran-2-carboxamide, copper(II) trifluromethanesulfonate [Compound 1.2.Cu]
IC50 [2]: 39.6 µM

Compound: (2S,3S,4R,5R)-5-(6-amino-9H-purin-9-yl)-3,4-dihydroxy-N-(4-oxo-4-(1,4,7,10-tetraazacyclododecan-1-yl)butyl)tetrahydrofuran-2-carboxamide, copper(II) trifluromethanesulfonate [Compound 1.3.Cu]
IC50 [2]: > 100 µM

Compound: (2S,3S,4R,5R)-5-(6-amino-9H-purin-9-yl)-3,4-dihydroxy-N-(5-oxo-5-(1,4,7,10-tetraazacyclododecan-1-yl)pentyl)tetrahydrofuran-2-carboxamide, copper(II) trifluoromethanesulfonate [Compound 1.4.Cu]
IC50 [2]: 38.8 µM

Compound: (2S,3S,4R,5R)—N-(2-(1,4,7,10-tetraazacyclododecan-1-yl)ethyl)-5-(6-amino-9H-purin-9-yl)-3,4-dihydroxytetrahydrofuran-2-carboxamide, copper(II) trifluromethanesulfonate [Compound 1.1.A.Cu]
IC50 (Table 5, n = 3): 21.1 µM

Compound: (2S,3S,4R,5R)—N-(6-(1,4,7,10-tetraazacyclododecan-1-yl)hexyl)-5-(6-amino-9H-purin-9-yl)-3,4-dihydroxytetrahydrofuran-2-carboxamide, copper(II) trifluromethanesulfonate [Compound 1.5.A.Cu]
IC50 (Table 5, n = 3): > 100 µM
